The test system of experiment [1] is L1210. The experiment in a line: In vivo antitumor activity against L1210 leukemia in 14 mice measured as T/C values; T/C = 14/9. It counts as functional, Mus musculus.
Experiment [2] deals with Mus musculus. The experiment in a line: Average weight of the mouse after treating with 20 mg/kg dose for 1 day. Type of experiment: functional. More on the design: unit not given here.
The test system of experiment [3] is L1210. The experiment in a line: In vivo antitumor activity against L1210 leukemia in 5 mice measured as Increased life span at 10 mg/kg. It counts as functional. The note with it: Mus musculus.
Experiment [4] concerns Mus musculus. In words: Average weight change in mouse after treating with 20 mg/kg dose for 7 days. Type of experiment: functional. More on the design: unit not given beside the values. The note with it: 20 mg/kg.
Experiment [5] has as its system L1210. The experiment in a line: In vivo antitumor activity against L1210 leukemia in 5 mice measured as Increased life span at 20 mg/kg. Particulars: Mus musculus. Type of experiment: functional.
The test system of experiment [6] is L1210. The experiment in a line: In vivo antitumor activity against L1210 leukemia in 12 mice measured as T/C values(days); T/C = 12/9. It counts as functional, Mus musculus.
The subject of experiment [7] is L1210. In words: In vivo antitumor activity against L1210 leukemia in 5 mice measured as median survival range at 10 mg/kg; Value ranges from (10-15). It counts as functional, Mus musculus.
Experiment [8] relates to L1210. In words: In vivo antitumor activity against L1210 leukemia in 5 mice measured as median survival range at 20 mg/kg; Value ranges from (14-18). It counts as functional, Mus musculus.
The test system of experiment [9] is L1210. The experiment in a line: In vivo antitumor activity against L1210 leukemia in 5 mice measured as median survival range at 30 mg/kg; Value ranges from (10-14). Type of experiment: functional, Mus musculus.
Experiment [10] relates to L1210. In words: In vivo anti tumor activity against L1210 leukemia in 5 mice measured as Increased life span at 45 mg/kg. Type of experiment: functional. Particulars: Mus musculus.
Experiment [11] has as its system Mus musculus. In words: Average weight change in mouse after treating with 60 mg/kg dose for 7 days. It counts as functional.
For experiment [12], the system named is Mus musculus. In words: Average weight of the mouse after treating with 30 mg/kg dose for 1 day. It counts as functional.
Experiment [13] deals with L1210. In words: In vivo antitumor activity against L1210 leukemia in 9 mice measured as median survival range at 60 mg/kg; Value ranges from (18-21). Type of experiment: functional, Mus musculus.
Experiment [14] deals with L1210. The experiment in a line: In vivo anti tumor activity against L1210 leukemia in 9 mice measured as Increased life span at 60 mg/kg. Type of experiment: functional. The note with it: Mus musculus.
Experiment [15] deals with Mus musculus. In words: Average weight of the mouse after treating with 60 mg/kg dose for 1 day. Type of experiment: functional.
The test system of experiment [16] is Mus musculus. In words: Average weight change in mouse after treating with 30 mg/kg dose for 7 days. Type of experiment: functional.
Experiment [17] deals with L1210. The experiment in a line: In vivo antitumor activity against L1210 leukemia in 20 mice measured as T/C values(days); T/C = 20/11. Type of experiment: functional, Mus musculus.
Experiment [18] has as its system L1210. In words: In vivo antitumor activity against L1210 leukemia in 18 mice measured as T/C values(days); T/C = 18/11. Type of experiment: functional, Mus musculus.
Experiment [19] relates to Mus musculus. In words: Average weight of the mouse after treating with 90 mg/kg dose for 7 days. Type of experiment: functional.
For experiment [20], the system named is L1210. In words: In vivo antitumor activity against L1210 leukemia in 5 mice measured as median survival range at 45 mg/kg; Value ranges from(14-19). It counts as functional, Mus musculus.
For experiment [21], the system named is L1210. The experiment in a line: In vivo antitumor activity against L1210 leukemia in 5 mice measured as Increased life span at 90 mg/kg. Type of experiment: functional. Particulars: Mus musculus.
For experiment [22], the system named is L1210. The experiment in a line: In vivo antitumor activity against L1210 leukemia in 5 mice measured as Increased life span at 45 mg/kg. Type of experiment: functional. Particulars: Mus musculus.
In experiment [23] the test system is Mus musculus. The experiment in a line: Average weight of the mouse after treating with 45 mg/kg dose for 1 day. Type of experiment: functional.
Experiment [24] deals with Mus musculus. In words: Average weight of the mouse after treating with 90 mg/kg dose for 1 day. Type of experiment: functional.
Experiment [25] relates to Mus musculus. The experiment in a line: Average weight of the mouse after treating with 45 mg/kg dose for 7 days. It counts as functional.
In experiment [26] the test system is L1210. In words: In vivo antitumor activity against L1210 leukemia in 5 mice measured as median survival range at 90 mg/kg; Value ranges from(15-24). Type of experiment: functional, Mus musculus.
In experiment [27] the test system is L1210. The experiment in a line: In vivo antitumor activity against L1210 leukemia in 5 mice measured as median survival range at 40 mg/kg; Value ranges from(15-23). It counts as functional, Mus musculus.
Experiment [28] relates to L1210. The experiment in a line: In vivo antitumor activity against L1210 leukemia in 5 mice measured as T/C values; T/C = 23/9. It counts as functional, Mus musculus.
Experiment [29] deals with Mus musculus. The experiment in a line: Average weight of the mouse after treating with 10 mg/kg dose for 1 day. It counts as functional. Set-up: unit not given here.
Experiment [30] relates to Mus musculus. The experiment in a line: Average weight of the mouse after treating with 10 mg/kg dose for 7 day. Type of experiment: functional.
Experiment [31] has as its system L1210. The experiment in a line: In vivo antitumor activity against L1210 leukemia in 5 mice measured as Increased life span at 40 mg/kg. Particulars: Mus musculus. It counts as functional.
Experiment [32] relates to Mus musculus. The experiment in a line: Average weight of the mouse after treating with 20 mg/kg dose for 7 days. It counts as functional.
Experiment [33] deals with Mus musculus. In words: Average weight of the mouse after treating with 40 mg/kg dose for 1 day. It counts as functional. More on the design: unit not given here.
Experiment [34] deals with L1210. In words: In vivo antitumor activity against L1210 leukemia in 5 mice measured as median survival range at 20 mg/kg; Value ranges from (14-23). It counts as functional, Mus musculus.
The test system of experiment [35] is L1210. The experiment in a line: In vivo antitumor activity against L1210 leukemia in 5 mice measured as median survival range at 10 mg/kg; Value ranges from (13-18). Type of experiment: functional, Mus musculus.
Experiment [36] has as its system L1210. The experiment in a line: In vivo antitumor activity against L1210 leukemia in 17 mice measured as T/C values; T/C = 17/9. Type of experiment: functional, Mus musculus.
In experiment [37] the test system is Mus musculus. In words: Average weight of the mouse after treating with 40 mg/kg dose for 7 day. Type of experiment: functional.
Experiment [38] has as its system L1210. The experiment in a line: In vivo antitumor activity against L1210 leukemia in 5 mice measured as Increased life span at 30 mg/kg. Type of experiment: functional. Particulars: Mus musculus.
Experiment [39] deals with L1210. The experiment in a line: In vivo anti tumor activity against L1210 leukemia in 5 mice measured as Increased life span at 15 mg/kg. Type of experiment: functional. Particulars: Mus musculus.
Experiment [40] concerns Mus musculus. The experiment in a line: Average weight of the mouse after treating with 30 mg/kg dose for 7 day. Type of experiment: functional.
The subject of experiment [41] is L1210. The experiment in a line: In vivo antitumor activity against L1210 leukemia in 18 mice measured as T/C values; T/C = 18/9. Type of experiment: functional, Mus musculus.
Experiment [42] deals with Mus musculus. The experiment in a line: Average weight of the mouse after treating with 15 mg/kg dose for 1 day. Type of experiment: functional.
Experiment [43] deals with Mus musculus. In words: Average weight of the mouse after treating with 30 mg/kg dose for 1 day. Type of experiment: functional.
Experiment [44] deals with Mus musculus. In words: Average weight change in mouse after treating with 15 mg/kg dose for 7 days. It counts as functional.
Experiment [45] relates to L1210. The experiment in a line: In vivo antitumor activity against L1210 leukemia in 5 mice measured as median survival range at 30 mg/kg; Value ranges from(17-22). It counts as functional, Mus musculus.
Experiment [46] deals with L1210. In words: In vivo antitumor activity against L1210 leukemia in 5 mice measured as median survival range at 15 mg/kg; Value ranges from (12-14). Type of experiment: functional, Mus musculus.
The test system of experiment [47] is L1210. In words: In vivo antitumor activity against L1210 leukemia in 12 mice measured as T/C values; T/C = 12/9. Type of experiment: functional, Mus musculus.

The structures appear in SMILES notation. “And” between values parts separate entries of the source, which are not always exact repeats. Equal values may be shown once.

The term ILS denotes how much longer treated animals lived than controls.

For the compound `CCCCCOC(=O)CCC(NC(=O)c1ccc(N(C)Cc2cnc3nc(N)nc(N)c3n2)cc1)C(=O)OCCCCC` (stereo not given), the T/C in the experiment on L1210 [1] is given as 14; in the experiment with L1210 [6] it was 12. Besides, the Average weight in the experiment on Mus musculus [2] (20 mg/kg) was 21.5 and 20.8. Besides, in the experiment on L1210 [3], the ILS at 10 mg/kg stood at 33%. In the experiment on Mus musculus [4], the Weight change is 0.6 and 0.4. This compound came in with an ILS at 20 mg/kg with L1210 [5] of 55%. For the same compound, the Range is 15 in the experiment on L1210 [7] and 18 with L1210 [8].

For `CCCCCCCCCCCCOC(=O)CCC(NC(=O)c1ccc(N(C)Cc2cnc3nc(N)nc(N)c3n2)cc1)C(=O)OCCCCCCCCCCCC` (stereo not given), the Range stood at 14 in the experiment with L1210 [9] and 21 in the experiment with L1210 [13]. The compound also came in with an ILS at 45 mg/kg in the experiment with L1210 [10] of 33%. Further, the results for the Weight change in the experiment on Mus musculus [11] and with Mus musculus [16] were 0 and 3, respectively. Also, the Average weight is recorded as 23.2 in the experiment with Mus musculus [12] and 24.2 with Mus musculus [15]. The same compound showed an ILS at 60 mg/kg in the experiment on L1210 [14] of 100%.

As for `CCCCOC(=O)CCC(NC(=O)c1cc(Cl)c(N(C)Cc2cnc3nc(N)nc(N)c3n2)c(Cl)c1)C(=O)OCCCC` (stereo not given), the T/C in the experiment on L1210 [17] and in the experiment on L1210 [18] was 11 each time. Besides, the values for the Weight change with Mus musculus [19] and in the experiment with Mus musculus [25] were 3.8 and 1, respectively. The figures for the Range in the experiment on L1210 [20] and with L1210 [26] were 19 and 24, respectively. In the experiment on L1210 [21], this compound showed an ILS at 90 mg/kg of 82%. Further, the ILS at 45 mg/kg in the experiment on L1210 [22] was 64%. Moreover, the Average weight with Mus musculus [23] was 25; in the experiment with Mus musculus [24], 27.8.

Turning to `Cc1ccc(C)c(COC(=O)CCC(NC(=O)c2ccc(N(C)Cc3cnc4nc(N)nc(N)c4n3)cc2)C(=O)OCc2cc(C)ccc2C)c1` (stereo not given), the Average weight was 22 with Mus musculus [2], 23 with Mus musculus [29] and 20.7 in the experiment with Mus musculus [33]. The Range in the experiment with L1210 [27] is on record as 23; in the experiment on L1210 [34], 23; with L1210 [35] it was 18. For the same compound, the T/C with L1210 [28] and in the experiment on L1210 [36] was 9 in each case. In the experiment on L1210 [3], this compound came in with an ILS at 10 mg/kg of 88%. Besides, the Weight change is reported as 1.6 in the experiment with Mus musculus [30], 0.7 in the experiment on Mus musculus [32] and 0.7 with Mus musculus [37]. Moreover, the ILS at 40 mg/kg with L1210 [31] stood at 155%. The compound further displayed an ILS at 20 mg/kg in the experiment with L1210 [5] of 111%.

`CN(Cc1cnc2nc(N)nc(N)c2n1)c1ccc(C(=O)NC(CCC(=O)OCc2ccccc2)C(=O)OCc2ccccc2)cc1` (stereo not given): in the experiment with L1210 [38], the ILS at 30 mg/kg was 100%. In the experiment on L1210 [39], the ILS at 15 mg/kg is 33%. The Weight change with Mus musculus [40] is given as 1.6; with Mus musculus [44], 0.4. Besides, the T/C in the experiment on L1210 [41] and in the experiment on L1210 [47] was 9 each time. The Average weight in the experiment with Mus musculus [42] is 25.8; with Mus musculus [43], 25.6. The results for the Range in the experiment with L1210 [45] and in the experiment on L1210 [46] were 22 and 14, respectively.

(Values after ChEMBL document CHEMBL1122370 (J Med Chem, 1983).)
